The target of the experiment is STAT3 (Homo sapiens, UniProt P40763). As to the kind of experiment: microscale thermophoresis (MST) with His-tag-labelled purchased STAT3 protein (ACROBiosystems ST3-H5149). It counts as binding.

Among the data in PMC11055985, “Metochalcone induces senescence-associated secretory phenotype via JAK2/STAT3 pathway in breast cancer” (Oncology Research, 2024) are Kd values, retold here.

SMILES strings stand for the structures.

Chain of STAT3 (P40763 2-770): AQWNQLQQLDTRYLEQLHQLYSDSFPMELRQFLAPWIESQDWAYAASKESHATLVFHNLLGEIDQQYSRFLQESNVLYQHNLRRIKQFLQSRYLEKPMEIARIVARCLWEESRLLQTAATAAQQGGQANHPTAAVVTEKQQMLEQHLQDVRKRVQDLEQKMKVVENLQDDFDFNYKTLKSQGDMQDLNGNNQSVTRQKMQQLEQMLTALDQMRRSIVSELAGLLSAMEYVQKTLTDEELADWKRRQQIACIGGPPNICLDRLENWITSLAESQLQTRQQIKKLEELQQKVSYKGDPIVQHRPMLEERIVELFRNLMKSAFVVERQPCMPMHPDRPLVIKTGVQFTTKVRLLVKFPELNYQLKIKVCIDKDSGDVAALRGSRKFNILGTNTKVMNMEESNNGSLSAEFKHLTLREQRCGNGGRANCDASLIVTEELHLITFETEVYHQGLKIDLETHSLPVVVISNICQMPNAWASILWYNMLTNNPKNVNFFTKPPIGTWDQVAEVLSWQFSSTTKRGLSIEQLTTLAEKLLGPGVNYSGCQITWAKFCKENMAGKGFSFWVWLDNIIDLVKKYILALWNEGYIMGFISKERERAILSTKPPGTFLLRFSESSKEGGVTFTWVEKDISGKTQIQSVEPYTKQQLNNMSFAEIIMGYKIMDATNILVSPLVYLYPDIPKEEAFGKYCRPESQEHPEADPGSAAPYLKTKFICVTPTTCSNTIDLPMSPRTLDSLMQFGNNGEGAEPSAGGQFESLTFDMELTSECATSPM

With `COc1ccc(/C=C/C(=O)c2ccc(OC)cc2OC)cc1` [TEC, 2', 4, 4'-trimethoxychalcone], binding was put at a Kd of 9.85 µM.

Broadly, the Kd is the concentration at which binding is half-saturated.
